From patent US20260165321A1, “FUMIGANT COMPOSITION FOR PEST CONTROL” (priority 2020, published 2026) come the findings set out here.

SMILES strings stand for the structures. Values after ≈ are worked out from the molar mass of the structure shown.

Type in all cases: in vivo
In assay [1] the test system is German cockroach (Blattella germanica). The assay is described as follows: Fumigant toxicity test (1), 2 h in 1-liter airtight container. The settings on record: fumigation 2 hours, ~24° C., 30 insects, doses 0-180 mg/dm^3. An excerpt:
(§1) The poisoning ability index used in the following examples is the internationally commonly used median lethal concentration (LC50), which refers to a dosage required to kill 50% of a group of tested insects. The main test method is to include a number of tested insect (adults or larvae) and the examined chemical at a wide range of dosage in a 1-liter airtight transparent containers for a period of time. Afterward, the airtight containers were opened for ventilation, and the dead insects in the containers were counted. The linear regression between the mortality, expressed as probability unit, and the log dosage was analyzed using the software Priprobit v1.63, from which the value of LC50 could be obtained.
(§2) Take several 1-liter airtight transparent containers marked with different doses of 2,5-dimethylfuran, then put 30 insects into each of the transparent containers and add 2,5-dimethylfuran with marked doses (0, 18, 45, 90, 180 mg/dm^3), respectively, into each of the transparent containers. Place the containers at room temperature (˜24° C.) for 2 hours, and then quantitate the dead insects in each of the transparent containers. Wherein, the insects used include German cockroach (Blattella germanica), green peach aphid (Myzus persicae), brown planthopper (Nilaparvata lugens), diamondback moth (Plutella xylostella), rice weevil (Sitophilus oryzae), lesser grain borer (Rhyzopertha dominica), and sweet potato weevil (Cylas formicarius).

The subject of assay [2] is brown planthopper (Nilaparvata lugens). The assay is described as above. Particulars: fumigation 2 hours, ~24° C., 30 insects, doses 0-180 mg/dm^3.
From the text: as §1, §2

For assay [3], the system named is diamondback moth (Plutella xylostella). Described as above. The settings on record: fumigation 2 hours, ~24° C., 30 insects, doses 0-180 mg/dm^3.
From the text: as §1, §2

The subject of assay [4] is green peach aphid (Myzus persicae). The assay is described as above. Particulars: fumigation 2 hours, ~24° C., 30 insects, doses 0-180 mg/dm^3.
From the text: as §1, §2

Assay [5] concerns lesser grain borer (Rhyzopertha dominica). Described as above. The settings on record: fumigation 2 hours, ~24° C., 30 insects, doses 0-180 mg/dm^3.
From the text: as §1, §2

In assay [6] the test system is rice weevil (Sitophilus oryzae). The assay is described as above. The settings on record: fumigation 2 hours, ~24° C., 30 insects, doses 0-180 mg/dm^3.
From the text: as §1, §2

The test system is the same in assay [7]. The settings on record: adult rice weevil, fumigation 2 hours, about 24° C., 1-liter container.
From the text: as §1
Put 30 adult insects of rice weevil (Sitophilus oryzae) into each of a group of 1-liter transparent containers, on which the name of tested chemical and the predetermined dosage are marked. Wherein, the chemicals to be tested include 2,5-dimethylfuran, 2,5-dimethylthiophene, 2-methylfuran, 2-methylthiophene, 2-ethylfuran and 2-ethylthiophene. The airtight containers, which contain the insect and chemical, are left at room temperature of about 24° C. for 2 hours. Afterward, the containers are opened for ventilation, and the dead rice weevils (Sitophilus oryzae) in each of the containers are counted. The linear regression between mortality and log dosage is analyzed using the software Priprobit v1.63, from which the lethal concentrations 50% (LC50) and 95% (LC95) are calculated.

Take `Cc1ccc(C)o1` [2,5-dimethylfuran]: the “administered dosage required to kill all the tested individuals” value in assay [1], in assay [2], in assay [3] and in assay [6] was 90 mg/L in each case. Further, the “administered dosage enough to kill all the tested individuals” value in assay [4] and in assay [5] was 18 mg/L each time. In addition, in assay [7], the “LC95 [95% CI]” value turned out to be 111.6 mg/L (≈ 1160 µM).

As for `Cc1ccc(C)s1` [2,5-dimethylthiophene], the “LC95 [95% CI]” value in assay [7] was 135.3 mg/L (≈ 1210 µM).

On to `CCc1ccco1` [2-ethylfuran], for which the “LC95 [95% CI]” value in assay [7] is 146.5 mg/L (≈ 1520 µM).

On to `CCc1cccs1` [2-ethylthiophene], for which the “LC95 [95% CI]” value in assay [7] worked out at 20.6 mg/L (≈ 184 µM).

Turning to `Cc1ccco1` [2-methylfuran], in assay [7], the “LC95 [95% CI]” value turned out to be 329.7 mg/L (≈ 4020 µM).

As for `Cc1cccs1` [2-methylthiophene], the “LC95 [95% CI]” value in assay [7] is 54.6 mg/L (≈ 556 µM).
